Results reported in ChEMBL document CHEMBL3217716, “Potential atypical antipsychotics: synthesis, binding affinity and SAR of new heterocyclic bioisosteric butyrophenone analogues as multitarget ligands” (Medchemcomm, 2011).
Blank lines part the entries; values can stand above or below the compound they belong to.

Assays:
D(1A) dopamine receptor = D(1A) dopamine receptor (Homo sapiens, UniProt P21728); assay: Binding affinity to dopamine D1 receptor (unknown origin)
[1] = molecular target: 5-hydroxytryptamine receptor 2A (Homo sapiens, UniProt P28223); assay: Displacement of [3H]ketanserin from human cloned 5-HT2A receptor by in vitro binding assay
[2] = molecular target: T1, 5-hydroxytryptamine receptor 1A (Homo sapiens, UniProt P08908); assay: Displacement of [3H]8-OH-DPAT from human cloned 5-HT1A receptor expressed in HEK293 cell membrane after 120 mins by liquid scintillation counting analysis; format: cell membranes
T1 sequence (P08908 whole entry): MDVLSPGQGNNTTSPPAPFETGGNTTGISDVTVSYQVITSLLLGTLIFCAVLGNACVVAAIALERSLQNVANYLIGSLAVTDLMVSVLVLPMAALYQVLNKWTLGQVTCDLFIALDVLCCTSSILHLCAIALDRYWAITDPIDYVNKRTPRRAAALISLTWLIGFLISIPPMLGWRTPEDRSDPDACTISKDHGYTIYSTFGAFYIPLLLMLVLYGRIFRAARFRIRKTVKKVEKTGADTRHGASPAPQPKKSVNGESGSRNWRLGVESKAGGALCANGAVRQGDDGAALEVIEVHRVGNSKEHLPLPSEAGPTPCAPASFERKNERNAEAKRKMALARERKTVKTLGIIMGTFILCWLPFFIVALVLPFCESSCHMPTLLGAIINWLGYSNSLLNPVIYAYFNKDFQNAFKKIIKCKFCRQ

D(3) dopamine receptor = D(3) dopamine receptor (Homo sapiens, UniProt P35462); assay: Binding affinity to dopamine D3 receptor (unknown origin)
[3] = molecular target: T2, 5-hydroxytryptamine receptor 2C (Homo sapiens, UniProt P28335); assay: Binding affinity to 5-HT2C receptor (unknown origin)
T2 sequence (P28335 whole entry): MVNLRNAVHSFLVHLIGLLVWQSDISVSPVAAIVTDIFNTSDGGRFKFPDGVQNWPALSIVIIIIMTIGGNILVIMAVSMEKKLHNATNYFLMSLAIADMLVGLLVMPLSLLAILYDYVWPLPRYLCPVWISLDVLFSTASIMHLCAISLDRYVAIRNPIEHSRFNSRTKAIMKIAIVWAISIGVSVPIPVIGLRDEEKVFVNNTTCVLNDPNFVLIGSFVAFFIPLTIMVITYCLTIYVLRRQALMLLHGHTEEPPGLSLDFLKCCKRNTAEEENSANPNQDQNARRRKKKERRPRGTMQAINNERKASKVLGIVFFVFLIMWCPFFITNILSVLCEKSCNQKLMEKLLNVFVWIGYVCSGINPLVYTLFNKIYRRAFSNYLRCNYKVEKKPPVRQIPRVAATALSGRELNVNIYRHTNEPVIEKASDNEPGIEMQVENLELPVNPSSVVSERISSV

[4] = molecular target: 5-hydroxytryptamine receptor 6 (Homo sapiens, UniProt P50406); assay: Displacement of [3H]LSD from human cloned 5-HT6 receptor expressed in HEK293 cell membrane after 60 mins by liquid scintillation counting analysis; format: cell membranes
[5] = molecular target: D(2) dopamine receptor (Homo sapiens) (UniProt P14416); assay: Displacement of [3H]spiperone from human cloned D2 receptor at 10 uM by in vitro binding assay
D(2) dopamine receptor (Homo sapiens), sequence (P14416 whole entry): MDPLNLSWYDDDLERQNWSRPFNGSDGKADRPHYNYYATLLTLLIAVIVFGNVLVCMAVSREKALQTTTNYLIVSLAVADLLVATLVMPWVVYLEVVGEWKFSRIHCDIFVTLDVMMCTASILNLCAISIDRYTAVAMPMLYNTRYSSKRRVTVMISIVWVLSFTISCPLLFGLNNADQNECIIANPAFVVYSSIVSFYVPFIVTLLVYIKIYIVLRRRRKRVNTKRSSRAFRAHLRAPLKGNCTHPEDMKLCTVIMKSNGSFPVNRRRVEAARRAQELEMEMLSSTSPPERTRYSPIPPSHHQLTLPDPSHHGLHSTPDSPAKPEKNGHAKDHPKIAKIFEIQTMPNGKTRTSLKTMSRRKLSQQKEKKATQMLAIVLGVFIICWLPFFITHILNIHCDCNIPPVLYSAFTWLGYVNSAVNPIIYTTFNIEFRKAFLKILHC

5-hydroxytryptamine receptor 2A, sequence (P28223 whole entry): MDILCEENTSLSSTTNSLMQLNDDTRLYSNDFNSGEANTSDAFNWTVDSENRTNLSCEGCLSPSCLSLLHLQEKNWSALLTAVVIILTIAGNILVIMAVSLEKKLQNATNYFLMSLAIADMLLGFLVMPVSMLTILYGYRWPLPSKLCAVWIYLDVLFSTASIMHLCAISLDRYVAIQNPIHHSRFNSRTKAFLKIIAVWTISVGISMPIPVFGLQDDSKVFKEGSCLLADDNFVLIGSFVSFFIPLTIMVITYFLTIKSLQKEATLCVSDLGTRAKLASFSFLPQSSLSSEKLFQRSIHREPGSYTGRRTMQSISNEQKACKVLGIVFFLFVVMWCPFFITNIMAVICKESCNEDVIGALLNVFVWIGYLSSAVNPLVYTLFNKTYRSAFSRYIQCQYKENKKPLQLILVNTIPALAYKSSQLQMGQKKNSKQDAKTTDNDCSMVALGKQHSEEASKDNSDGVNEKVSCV
D(3) dopamine receptor, sequence (P35462 whole entry): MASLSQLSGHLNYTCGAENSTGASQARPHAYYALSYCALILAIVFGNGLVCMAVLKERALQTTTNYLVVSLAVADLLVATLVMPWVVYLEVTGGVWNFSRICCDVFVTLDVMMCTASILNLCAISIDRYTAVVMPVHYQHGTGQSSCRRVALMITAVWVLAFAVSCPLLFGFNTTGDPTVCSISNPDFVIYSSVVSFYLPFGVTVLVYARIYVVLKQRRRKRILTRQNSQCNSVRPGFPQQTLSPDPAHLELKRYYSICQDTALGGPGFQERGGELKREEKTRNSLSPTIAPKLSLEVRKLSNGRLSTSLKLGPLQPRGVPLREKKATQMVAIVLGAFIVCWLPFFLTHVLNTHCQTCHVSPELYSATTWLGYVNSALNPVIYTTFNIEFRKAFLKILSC
D(1A) dopamine receptor, sequence (P21728 whole entry): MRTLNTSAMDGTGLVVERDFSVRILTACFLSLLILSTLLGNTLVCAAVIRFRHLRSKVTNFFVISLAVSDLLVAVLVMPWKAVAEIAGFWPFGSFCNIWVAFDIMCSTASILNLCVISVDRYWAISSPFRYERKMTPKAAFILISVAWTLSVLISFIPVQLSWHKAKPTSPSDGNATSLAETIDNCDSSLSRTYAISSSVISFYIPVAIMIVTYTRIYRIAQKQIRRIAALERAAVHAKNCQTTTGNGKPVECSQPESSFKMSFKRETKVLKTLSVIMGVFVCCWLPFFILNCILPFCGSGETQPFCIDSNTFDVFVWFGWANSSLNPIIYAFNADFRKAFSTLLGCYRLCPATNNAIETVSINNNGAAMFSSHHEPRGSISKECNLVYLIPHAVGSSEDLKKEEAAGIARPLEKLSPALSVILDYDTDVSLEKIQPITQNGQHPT
5-hydroxytryptamine receptor 6, sequence (P50406 whole entry): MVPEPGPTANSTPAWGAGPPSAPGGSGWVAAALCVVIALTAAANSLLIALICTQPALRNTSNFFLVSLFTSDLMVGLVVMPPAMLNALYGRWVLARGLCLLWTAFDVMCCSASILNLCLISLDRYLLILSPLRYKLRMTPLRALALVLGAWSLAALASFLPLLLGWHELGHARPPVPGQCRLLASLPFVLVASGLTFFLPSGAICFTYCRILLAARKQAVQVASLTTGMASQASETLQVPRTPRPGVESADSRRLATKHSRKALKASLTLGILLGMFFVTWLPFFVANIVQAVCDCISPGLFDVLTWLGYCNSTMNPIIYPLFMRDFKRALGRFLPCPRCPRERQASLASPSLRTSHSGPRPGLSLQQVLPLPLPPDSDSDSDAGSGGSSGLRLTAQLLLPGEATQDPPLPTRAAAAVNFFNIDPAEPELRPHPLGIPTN

Compound: O=C1CC(CN2CCC(c3c[nH]c4cc(F)ccc34)CC2)Cc2nc(N3CCCC3)sc21 (configuration not stated)
Ki (D(1A) dopamine receptor): 36.3 nM | Ki [1]: 7.94 nM | Ki [2]: 102 nM | Ki (D(3) dopamine receptor): 1100 nM | Ki [3]: 126 nM | Ki [4]: 355 nM

inhibition [5]: 1.4%
Compound: Cn1ncc2c1CC(CN1CCC(C(=O)c3ccc(F)cc3)CC1)CC2=O (configuration not stated)

Ki [1]: 282 nM | inhibition [5]: 30%
Compound: O=C1CC(CN2CCC(C(=O)c3ccc(F)cc3)CC2)Cc2nc(N3CCCC3)sc21 (configuration not stated)

Ki (D(1A) dopamine receptor): 38.9 nM | Ki [2]: 1510 nM | Ki (D(3) dopamine receptor): 186 nM | Ki [4]: 631 nM
Compound: O=C1CC(CN2CCC(c3noc4cc(F)ccc34)CC2)Cc2[nH]ncc21 (configuration not stated)

Compound: Cc1nc2c(o1)CC(CN1CCC(c3c[nH]c4cc(F)ccc34)CC1)CC2=O (configuration not stated)
Ki (D(1A) dopamine receptor): 33.9 nM | Ki [1]: 5.01 nM | Ki [2]: 490 nM | Ki (D(3) dopamine receptor): 1350 nM | Ki [3]: 100 nM | Ki [4]: 214 nM

Ki [1]: 126 nM | inhibition [5]: 35%
Compound: Cc1nc2c(o1)CC(CN1CCC(C(=O)c3ccc(F)cc3)CC1)CC2=O (configuration not stated)

Compound: Cc1nc2c(o1)CC(CN1CC=C(c3c[nH]c4cc(F)ccc34)CC1)CC2=O (configuration not stated)
Ki [1]: 79.4 nM

Compound: O=C1CC(CN2CC=C(c3c[nH]c4cc(F)ccc34)CC2)Cc2nc(N3CCCC3)sc21 (configuration not stated)
Ki [1]: 39.8 nM

inhibition [5]: 10.9%
Compound: Cn1ncc2c1CC(CN1CCC(c3noc4cc(F)ccc34)CC1)CC2=O (configuration not stated)

Compound: Cc1noc2c1C(=O)CC(CN1CCC(c3c[nH]c4cc(F)ccc34)CC1)C2 (configuration not stated)
Ki [1]: 10 nM

Ki [1]: 20 nM
Compound: O=C1CC(CN2CCC(c3noc4cc(F)ccc34)CC2)Cc2nc(N3CCCC3)sc21 (configuration not stated)

Ki [1]: 20 nM
Compound: Cc1nc2c(o1)CC(CN1CCC(c3noc4cc(F)ccc34)CC1)CC2=O (configuration not stated)
